ChEMBL document CHEMBL5634145, “Discovery of novel amidobenzimidazole derivatives as orally available small molecule modulators of stimulator of interferon genes for cancer immunotherapy” (Eur J Med Chem, 2023)

Columns and labels:
[1] = target: Stimulator of interferon genes protein (Homo sapiens, UniProt Q86WV6); test: Agonist activity at STING in wild type human THP1-Dual cells assessed as increase in IRF-mediated immune response incubated for 24 hrs by QUANTI-Luc assay; type: cell-based
[2] = Cytotoxicity against wild type human THP1-Dual cells assessed as cell viability incubated for 24 hrs by CellTiter 96 aqueous one solution assay relative to control; type: toxicity, cell-based; set-up: concentration or dose not given beside the values; conditions: read-out: Activity
[3] = Cytotoxicity against human THP1-Dual KO-STING cells assessed as cell viability incubated for 24 hrs by CellTiter 96 aqueous one solution assay relative to control; type: toxicity, cell-based; set-up: concentration or dose not given beside the values; conditions: read-out: Activity
[4] = Agonist activity at STING (unknown origin)

Chain of Stimulator of interferon genes protein (Q86WV6 whole entry): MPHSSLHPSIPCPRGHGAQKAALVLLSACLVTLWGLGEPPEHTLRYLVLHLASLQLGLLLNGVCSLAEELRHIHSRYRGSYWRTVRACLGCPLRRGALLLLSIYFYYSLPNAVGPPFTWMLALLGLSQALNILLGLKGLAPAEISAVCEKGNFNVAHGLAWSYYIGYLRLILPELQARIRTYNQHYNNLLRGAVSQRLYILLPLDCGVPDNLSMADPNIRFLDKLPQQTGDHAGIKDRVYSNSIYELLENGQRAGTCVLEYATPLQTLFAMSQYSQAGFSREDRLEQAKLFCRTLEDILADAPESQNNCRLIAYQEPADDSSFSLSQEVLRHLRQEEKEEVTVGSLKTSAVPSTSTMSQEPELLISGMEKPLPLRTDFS

| Structure (SMILES) | EC50 [1] | viability at 24 h [2] | viability at 24 h [3] | EC50 [4] |
| --- | --- | --- | --- | --- |
| CCn1nc(C)cc1C(=O)Nc1nc2cc(C(N)=O)ccc2n1CCCCn1c(NC(=O)c2cc(C)nn2CC)nc2cc(C(N)=O)ccc21 | 9.2 µM | 101% | 117% |  |
| Nc1nc2c(ncn2[C@@H]2O[C@@H]3COP(=O)(O)O[C@H]4[C@@H](O)[C@H](n5cnc6c(N)ncnc65)O[C@@H]4COP(=O)(O)O[C@H]3[C@H]2O)c(=O)[nH]1 |  | 87% | 97.2% |  |
| CCn1nc(C)cc1C(=O)/N=c1\[nH]c2cc(C(N)=O)ccc2n1C[C@@H](O)c1ccccc1 |  |  |  | 102 µM |
| CCn1nc(C)cc1C(=O)Nc1nc2cc(C(N)=O)ccc2n1CCCCNC(=O)OC(C)(C)C | 19.6 µM | 69% | 105% |  |
| CC(C)(C)OC(=O)NCCCCn1c(NC(=O)c2ccc(F)nc2)nc2cc(C(N)=O)ccc21 |  | 102% | 107% |  |
| CCc1ncccc1C(=O)Nc1nc2cc(C(N)=O)ccc2n1CCCCNC(=O)OC(C)(C)C |  | 89.2% | 94.7% |  |
| Cc1ncccc1C(=O)Nc1nc2cc(C(N)=O)ccc2n1CCCCNC(=O)c1ccccc1 |  | 101% | 93.8% |  |
| Cc1ncccc1C(=O)Nc1nc2cc(C(N)=O)ccc2n1CCCCCN |  | 110% | 99.3% |  |
| CC(C)(C)OC(=O)NCCCCn1c(NC(=O)c2cccnc2F)nc2cc(C(N)=O)ccc21 |  | 107% | 108% |  |
| COc1cc(C(N)=O)cc2nc(NC(=O)c3ccc(C(F)(F)F)nc3C)n(C/C=C/CNC(=O)OC(C)(C)C)c12 |  | 87.5% | 107% |  |
| CC(C)(C)OC(=O)NCCCCn1c(NC(=O)c2ccncc2)nc2cc(C(N)=O)ccc21 |  | 86.9% | 90.6% |  |
| Cc1ccncc1C(=O)Nc1nc2cc(C(N)=O)ccc2n1CCCCNC(=O)OC(C)(C)C |  | 88.5% | 87.8% |  |
| CC(C)(C)OC(=O)NCCCCn1c(NC(=O)c2cccnc2Cl)nc2cc(C(N)=O)ccc21 |  | 105% | 100% |  |
| Cc1ncccc1C(=O)Nc1nc2cc(C(N)=O)ccc2n1CCCCCNC(=O)OC(C)(C)C |  | 92.2% | 92% |  |
| Cc1nc(C(F)(F)F)ccc1C(=O)Nc1nc2cc(C(N)=O)ccc2n1CCCCNC(=O)OC(C)(C)C | 29.7 µM | 106% | 97.5% |  |
| CC(C)(C)OC(=O)NCCCCn1c(NC(=O)c2cccnc2C(F)(F)F)nc2cc(C(N)=O)ccc21 |  | 108% | 102% |  |
